From PMC9224473 (International Journal of Molecular Sciences, 2022)
In brackets after ≈: the same amount, converted by molar mass.

Experiments:
[1] = system: SW620 (human metastatic colon cancer); assay: MTT cytotoxicity assay; type: cell-based; conditions: Homo sapiens, SW-620, 72 h, mean SD
Method: (§1) The human cell lines SW480 (primary colon cancer), SW620 (lymph node metastatic colon cancer from the same patient as primary cancer cells), HCT116 (colon carcinoma), HepG2 (liver cancer), and HaCaT (immortalized keratinocytes) were obtained from the American Type Culture Collection (ATCC, Rockville, MD, USA). The SW480, SW620 and HCT116 cells were grown in MEM (ThermoSci, Waltham, MA, USA), HepG2 and HaCaT in DMEM High Glucose (Biowest SAS, Nuaillé, France) supplemented with 10% foetal bovine serum (FBS), HEPES (20 mM), and antibiotics (100 U mL^−1 of Penicillin and 100 μg mL^−1 of Streptomycin). The cells were incubated in a humidified incubator at 37 °C/5% CO2, until 80–90% confluence was reached.
The cell viability was assessed by using of MTT salt [3-(4,5-dimethylthiazol-2-yl)-2,5-diphenyltetrazolium bromide] converted by mitochondrial dehydrogenase, occurring in living cells. […] The untreated cells were used as the control.
(§2) Subsequently, the medium was removed and dimethyl sulfoxide (DMSO) with isopropanol (1:1) was added to dissolve the formazan crystals. The optical density was measured using UVM 340 reader (ASYS Hitech GmbH, Eugendorf, Austria) at a wavelength of 570 nm. The experiments were repeated three times. The cell viability was calculated as the percent of MTT reduced in treated cells versus control cells (untreated cells). The number of viable cells cultured without tested compounds was assumed as 100%. A decreased relative MTT level indicates decreased cell viability. The IC50 values were estimated using CompuSyn version 1.0.

S. aureus ATCC 25923 = assay: MIC, broth microdilution, standard strain; type: cell-based, Staphylococcus aureus; conditions: Staphylococcus aureus, ATCC25923, 19 h, 35 °C
S. aureus T 5591 = assay: MIC, broth microdilution, clinical strain; type: cell-based, Staphylococcus aureus; conditions: Staphylococcus aureus, T5591, 19 h, 35 °C
E. coli 510 = assay: MIC, broth microdilution, clinical strain; type: cell-based, Escherichia coli; conditions: Escherichia coli, 510, 19 h, 35 °C
E. coli ATCC 25922 = assay: MIC, broth microdilution, standard strain; type: cell-based, Escherichia coli; conditions: 35 °C; for MIC E. coli ATCC 25922: 19 h; for MIC: Escherichia coli, ATCC25922, 19 h
P. aeruginosa 659 = assay: MIC, broth microdilution, clinical strain; type: cell-based, Pseudomonas aeruginosa; conditions: Pseudomonas aeruginosa, 659, read-out: MIC P. aeruginosa 659, 19 h, 35 °C
S. pasteuri KR 4358 = assay: MIC, broth microdilution, clinical strain; type: cell-based, Staphylococcus pasteuri; conditions: Staphylococcus pasteuri, KR4358, 19 h, 35 °C
S. aureus NCTC 4163 = assay: MIC, broth microdilution, standard strain; type: cell-based, Staphylococcus aureus; conditions: Staphylococcus aureus, NCTC4163, 19 h, 35 °C
S. aureus ATCC 29213 = assay: MIC, broth microdilution, standard strain; type: cell-based, Staphylococcus aureus; conditions: Staphylococcus aureus, ATCC29213, 19 h, 35 °C
[2] = system: S. epidermidis ATCC 35984; assay: MIC, broth microdilution, standard strain; type: cell-based, Staphylococcus epidermidis; conditions: Staphylococcus epidermidis, ATCC35984, 19 h, 35 °C
S. aureus T 5595 = assay: MIC, broth microdilution, clinical strain; type: cell-based, Staphylococcus aureus; conditions: Staphylococcus aureus, T5595, 19 h, 35 °C
E. coli 520 = assay: MIC, broth microdilution, clinical strain; type: cell-based, Escherichia coli; conditions: Escherichia coli, 520, 19 h, 35 °C
S. epidermidis KR 4243 = assay: MIC, broth microdilution, clinical strain; type: cell-based, Staphylococcus epidermidis; conditions: Staphylococcus epidermidis, KR4243, 19 h, 35 °C
[3] = system: S. epidermidis ATCC 12228; assay: MIC, broth microdilution, standard strain; type: cell-based, Staphylococcus epidermidis; conditions: Staphylococcus epidermidis, ATCC12228, 19 h, 35 °C
E. coli 600 = assay: MIC, broth microdilution, clinical strain; type: cell-based, Escherichia coli; conditions: Escherichia coli, 600, 19 h, 35 °C
[4] = system: HepG2 (human liver cancer); assay: MTT cytotoxicity assay; type: cell-based; conditions: Homo sapiens, HepG2, 72 h, mean SD
Method: as §1
(§3) The cell viability was assessed by using of MTT salt [3-(4,5-dimethylthiazol-2-yl)-2,5-diphenyltetrazolium bromide] converted by mitochondrial dehydrogenase, occurring in living cells. The cells were seeded in 96-well plates at a density of 1 × 10^4 cells per well and allowed to adhere for 24 h at 37 °C in a CO2 humidified incubator. […]. The untreated cells were used as the control.
as §2, with “After 72 h incubation, the medium was replaced with 200 µL per well of free-serum medium containing 0.5 mg mL^−1 MTT and incubated for 4 h at 37 °C in a CO2 humidified incubator. Subsequently,” for “Subsequently,”

[5] = system: SW480 (human primary colon cancer); assay: MTT cytotoxicity assay; type: cell-based; conditions: Homo sapiens, SW480, 72 h, mean SD
Method: as §1, §3
as §2, with “After 72 h incubation, the medium was replaced with 200 µL per well of free-serum medium containing 0.5 mg mL^−1 MTT and incubated for 4 h at 37 °C in a CO2 humidified incubator. Subsequently,” for “Subsequently,”

[6] = system: HCT116 (human colon cancer); assay: MTT cytotoxicity assay; type: cell-based; conditions: Homo sapiens, HCT-116, 72 h, mean SD
Method: as §1, §3
as §2, with “After 72 h incubation, the medium was replaced with 200 µL per well of free-serum medium containing 0.5 mg mL^−1 MTT and incubated for 4 h at 37 °C in a CO2 humidified incubator. Subsequently,” for “Subsequently,”

[7] = system: HaCaT (human immortal keratinocyte cell line); assay: MTT cytotoxicity assay; type: cell-based; conditions: Homo sapiens, HaCaT, 72 h, mean SD, read-out: IC50 HaCaT (normal cells)
Method: as §1, §3
as §2, with “After 72 h incubation, the medium was replaced with 200 µL per well of free-serum medium containing 0.5 mg mL^−1 MTT and incubated for 4 h at 37 °C in a CO2 humidified incubator. Subsequently,” for “Subsequently,”

P. aeruginosa ATCC 15442 = assay: MIC, broth microdilution, standard strain; type: cell-based, Pseudomonas aeruginosa; conditions: Pseudomonas aeruginosa, ATCC15442, 19 h, 35 °C
S. aureus ATCC 6538 = assay: MIC, broth microdilution, standard strain; type: cell-based, Staphylococcus aureus; conditions: Staphylococcus aureus, ATCC6538, 19 h, 35 °C

Structure (SMILES) | IC50 [1] [µM] | MIC (S. aureus ATCC 25923) [µg/mL] | MIC (S. aureus T 5591) [µg/mL] | MIC (E. coli 510) [µg/mL] | MIC E. coli ATCC 25922 (E. coli ATCC 25922) [µg/mL] | MIC (E. coli ATCC 25922) [µg/mL] | MIC (P. aeruginosa 659) [µg/mL] | MIC (S. pasteuri KR 4358) [µg/mL] | MIC (S. aureus NCTC 4163) [µg/mL] | MIC (S. aureus ATCC 29213) [µg/mL] | MIC [2] [µg/mL] | MIC (S. aureus T 5595) [µg/mL] | MIC (E. coli 520) [µg/mL] | MIC (S. epidermidis KR 4243) [µg/mL] | MIC [3] [µg/mL] | MIC (E. coli 600) [µg/mL] | IC50 [4] [µM] | IC50 [5] [µM] | IC50 [6] [µM] | IC50 [7] [µM] | also measured
Cc1ccc(C(C)C)c(OC(=O)CCCCCN2CCN(c3cc4c(cc3F)c(=O)c(C(=O)O)cn4C3CC3)CC2)c1 [Compound 14, 1-cyclopropyl-6-fluoro-7-{4-[6-(2-isopropyl-5-methylphenoxy)-6-oxohexyl]piperazin-1-yl}-4-oxo-1,4-dihydroquinoline-3-carboxylic acid] | 53.1 ± 0.3 | 1 (≈ 1.73 µM) | 4 (≈ 6.92 µM) | 128 (≈ 222 µM) | 2 (≈ 3.46 µM) | 2 to 4 (≈ 3.46 to 6.92 µM) | 64 (≈ 111 µM) | 2 (≈ 3.46 µM) | 1 (≈ 1.73 µM) | 2 (≈ 3.46 µM) | 1 (≈ 1.73 µM) | 2 (≈ 3.46 µM) | 16 (≈ 27.7 µM) | 2 (≈ 3.46 µM) | 1 (≈ 1.73 µM) | 8 (≈ 13.8 µM) | 44.4 ± 3.5 | 35.2 ± 1.2 | 38.1 ± 3.4 | 31.8 ± 1.9 | MIC (P. aeruginosa ATCC 15442): 16 µg/mL (≈ 27.7 µM); MIC (S. aureus ATCC 6538): 2 µg/mL (≈ 3.46 µM)
COc1cccc2c1C(=O)c1c(O)c3c(c(O)c1C2=O)C[C@@](O)(C(=O)CO)C[C@@H]3O[C@H]1C[C@H](N)[C@H](O)[C@H](C)O1 [Doxorubicin, reference compound] | – | – | – | – | – | – | – | – | – | – | – | – | – | – | – | – | 0.38 | 0.75 ± 0.1 | 0.59 ± 0.02 | 0.29 ± 0.1 | –
Cc1ccc(C(C)C)c(OC(=O)CCN2CCN(c3cc4c(cc3F)c(=O)c(C(=O)O)cn4C3CC3)CC2)c1 [Compound 11, 1-cyclopropyl-6-fluoro-7-{4-[3-(2-isopropyl-5-methylphenoxy)-3-oxopropyl]piperazin-1-yl}-4-oxo-1,4-dihydroquinoline-3-carboxylic acid] | 43.5 ± 7.5 | 4 (≈ 7.47 µM) | 4 (≈ 7.47 µM) | 256 (≈ 478 µM) | 4 (≈ 7.47 µM) | 2 to 4 (≈ 3.73 to 7.47 µM) | 16 (≈ 29.9 µM) | 8 (≈ 14.9 µM) | 4 (≈ 7.47 µM) | 4 (≈ 7.47 µM) | 4 (≈ 7.47 µM) | 8 (≈ 14.9 µM) | 8 (≈ 14.9 µM) | 4 (≈ 7.47 µM) | 4 (≈ 7.47 µM) | 4 (≈ 7.47 µM) | 51.3 ± 4.1 | 33.7 ± 6.6 | 39.1 ± 5.8 | > 100 | MIC (P. aeruginosa ATCC 15442): 16 µg/mL (≈ 29.9 µM); MIC (S. aureus ATCC 6538): 4 µg/mL (≈ 7.47 µM)
Cc1ccc(C(C)C)c(OC(=O)CCCCN2CCN(c3cc4c(cc3F)c(=O)c(C(=O)O)cn4C3CC3)CC2)c1 [Compound 13, 1-cyclopropyl-6-fluoro-7-{4-[5-(2-isopropyl-5-methylphenoxy)-5-oxopentyl]piperazin-1-yl}-4-oxo-1,4-dihydroquinoline-3-carboxylic acid] | 50.2 ± 0.8 | 4 (≈ 7.1 µM) | 2 (≈ 3.55 µM) | 128 (≈ 227 µM) | 4 (≈ 7.1 µM) | 2 to 4 (≈ 3.55 to 7.1 µM) | 128 (≈ 227 µM) | 2 (≈ 3.55 µM) | 2 (≈ 3.55 µM) | 2 (≈ 3.55 µM) | 2 (≈ 3.55 µM) | 2 (≈ 3.55 µM) | 4 (≈ 7.1 µM) | 2 (≈ 3.55 µM) | 2 (≈ 3.55 µM) | 8 (≈ 14.2 µM) | 33.8 ± 2.1 | 48.1 ± 2.8 | 50.2 ± 3.4 | > 100 | MIC (P. aeruginosa ATCC 15442): 16 µg/mL (≈ 28.4 µM); MIC (S. aureus ATCC 6538): 2 µg/mL (≈ 3.55 µM)
